{
  "source": "patent US20030096022A1",
  "about": "“Compositions and methods for the treatment and prevention of cardiovascular diseases and disorders, and for identifying agents therapeutic therefor” (Medlyte, Inc., priority 2000, published 2003)",
  "key": {"Adult rat cardiomyocytes": {"system": "Adult rat cardiomyocytes", "assay": "Hypoxia-induced sphingosine (SPH) production/release in cultured adult cardiomyocytes, HPLC of extracted sphingolipids", "assay_type": "cell-based", "settings": "cells pretreated 30 min with TNFRII:Fc 0.5 ng/mL or L-carnitine 20 ng/mL prior to 5 h hypoxia, FIG. 4", "method": "Adult rat cardiomyocytes were subjected to hypoxic conditions as described above and assayed for their ability to produce sphingolipid bases involved in the sphingomyelin signal transduction cascade.\nCardiomyocytes were cultured on plastic dishes that were placed in a humidified modular incubator chamber (ICN Biomedicals, Aurora, Ohio) pressurized to 0.04-0.05 psi by the particular gas mixture used in the treatment. Warm (37° C.) Tyrode's solution containing 0.2 mM BSA, ampicillin ([…]), kanamycin (100 mg/mL) and fungizone (20 μg/mL) was gassed in a 50 mL sterile conical for 15 minutes with 95%N2/5% CO2 prior to adding the solution to the cultured cells. The pO2 was monitored by a Micro pO2 System oxygen electrode (Lasar Research Labs, Los Angeles, Calif.) and found to be 4.0 PPM for the duration of the hypoxia condition. […] The pH of control and experimental cell cultures was monitored with a micro pH electrode (Beetrode pH Electrodes, Sarasota, Fla.) and remained constant at pH=7.26+/−0.02 for normoxic cells and 7.15+/−0.03 for hypoxic cells throughout the experiment. […]\nThe HPLC analysis was performed using a Beckman (Fullerton, Calif.) System Gold 118 Solvent Module and 507e Autosampler. A Jasco (Easton, Md.) FP-920 Intelligent Fluorescence Detector was used with an excitation wavelength of 330 nm and emission wavelength of 455 nm. […]"}, "[1]": {"system": "Langendorff rat heart model of ischemia", "assay": "Global ischemia and reperfusion in isolated Langendorff-perfused rat heart (left ventricular pressure)", "settings": "0.1 mM gentamicin recirculated 30 min, 40 min global ischemia, 45 min reperfusion; FIG. 5", "excerpt": "The protocol used was essentially that described by Sakai et al. (A device for recording left ventricular contraction and electrocardiogram in nonworking isolated perfused rat heart, Jpn J Pharmacol 28:223-9, 1978), and Zelinski et al., (Phosphatidylcholine biosynthesis in isolated hamster heart, J Biol Chem. 255:11423-8, 1980) with the exception, in the latter instance, that rat studies were used in the experiments described herein instead of hamster hearts.\nIn brief, rats were anesthetized and their hearts were excised. The isolated hearts were cannulated and attached to Langendorff perfusion apparatus, and perfused with KH buffer. The hearts were allowed to stabilize for 5-10 min. After stabilization, the hearts should be paceable and drip rate should be between 5 and 10 mls per minute.\nA small hole was cut in the left atrium of each animal to expose the mitral valve. A deflated transducer balloon was introduced into the left ventricle through the hole in left atrium. The transducer tube was taped and adjusted so that there was no pressure on the heart. Left ventricular pressure was measured and recorded using the MacLab program. […]\nAfter about 45 min., the perfusate was turned off and the ventricular pressure was no longer recorded. […]"}, "[2]": {"biological_target": "tumor necrosis factor alpha (TNFα) released by hypoxic rat cardiomyocytes (rat) (UniProt P16599)", "sequence (P16599 80-235 limits assumed)": "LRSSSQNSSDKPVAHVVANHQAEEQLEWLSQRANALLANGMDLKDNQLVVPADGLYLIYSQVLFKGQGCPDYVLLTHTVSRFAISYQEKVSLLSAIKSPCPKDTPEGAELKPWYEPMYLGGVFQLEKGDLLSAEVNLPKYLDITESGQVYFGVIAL", "assay": "cell-based or functional assay"}},
  "data": [
    {"compound": "C[N+](C)(C)C[C@H](O)CC(=O)[O-]", "note": "[L-carnitine]", "values": [
      {"measurement": "reducing the amount of total SPH (hypoxia-induced production of sphingosine)", "setting": "Adult rat cardiomyocytes", "result": "significantly (p<0.01) reducing"},
      {"measurement": "reducing the amount of total SPH (hypoxia-induced production of sphingosine)", "setting": "Adult rat cardiomyocytes; listed as L-camitine", "result": "blocks"}
    ]},
    {"compound": "Gentamicin Sulfate", "values": [
      {"measurement": "ischemia and reperfusion injury", "setting": "[1]", "result": "mitigated"}
    ]},
    {"compound": "TNFRII:Fc receptor fragment (from UniProt P20333 23-257) (Fc fusion)", "values": [
      {"measurement": "SPH release from hypoxic adult rat cardiomyocytes (HPLC)", "setting": "[2]", "result": 3, "unit": "fold"}
    ]}
  ]
}
